Measured values from US7892767B2, “Phosphospecific chemokine receptor antibodies” (Washington University in St. Louis, priority 2005, dated 2011).

Key:
cortical astrocytes = experiment: Intracellular cAMP by ELISA, primary cortical astrocytes; format: cell-based, mouse; conditions: 1 μg/ml CXCL12
Procedure: Primary astrocyte cultures. Primary astrocytes were cultured from 1 to 3-day-old BALB/C mice as described (57). The cortices were triturated into single cells in minimal essential medium (Invitrogen) containing 10% FCS, and then plated onto 75 cm^2 T-flasks (0.5 hemisphere/flask) for 10-14 days. Astrocytes were prepared by vigorous shaking of T-flasks overnight, removal of non-adherent cells, and isolation of the remaining adherent cells, with 0.1% trypsin.
(§1) Growth factor and drug treatment. Following serum-starvation for 24 hours, astrocytes, granule cells, U87 cells and Daoy cells, were treated with 1 μg/ml CXCL12 (PeproTech), […] AMD3465 (kind gift from Simon Fricker, AnorMED, Langley, BC, Canada) (200 μM Rolipram (Sigma), or 10 μM Forskolin (Sigma) as indicated.
(§2) Determination of cAMP concentration. Competitive immunoassay for cAMP concentration was performed exactly as directed by the manufacturer. Absorbance at 405 nm was measured and cAMP concentrations were determined by calculation based on a standard curve. Protein concentrations were measured by colormetric assay (Bio-Rad, Hercules, Calif.) according to the manufacturer's directions. cAMP values were normalized to protein for each sample individually.

[1] = tested on: Daoy medulloblastoma cells; experiment: Intracellular cAMP by ELISA, Daoy medulloblastoma cells; format: cell-based, human; conditions: 1 μg/ml CXCL12
Procedure: as §1
(§3) cAMP measurement in cell culture. cAMP concentration was measured using a Correlated-EIA™. Enzyme Immunoassay Kit (Assay Designs Inc. MI) according to the manufacturer's instructions. Briefly, U87 or Daoy cells were serum-starved for 24 hours, and treated with CXCL12 (1 μg/ml), Rolipram (200 μM), or forskolin (10 μM). Cells were lysed in 0.1M HCL and particulate matter was removed by centrifugation at >600×g for 10 min. The supernatants were dried down and resuspended in assay buffer.
as §2

Nf1−/− astrocytes = experiment: Intracellular cAMP by ELISA, Nf1−/− astrocytes; format: cell-based, mouse
Procedure: cAMP measurements. cAMP was measured by ELISA (Cayman Chemical Company, Ann Arbor, Mich. or Assay Designs, Ann Arbor, Mich.). Briefly, astrocyte cultures were lysed in 0.1 N HCl. After the removal of cellular debris, soluble cellular extract was dried down and resuspended in EIA buffer. Experimental samples and cAMP standard curve were acetylated to increase the sensitivity of the assay and incubated with cAMP ACHe tracer and cAMP EIA anti-serum overnight at 4° C. according to the manufacturer's instructions. After extensive washing, bound antibody was measured by spectrophotometric analysis. Concentrations of cAMP were derived from comparison with standard curve according to manufacturer's instructions.
We evaluated the time dependent changes in intracellular cAMP in Nf1+/+ and Nf1−/− astrocytes after exposure to 0.1 μg/ml CXCL12. […] However, in Nf1+/+ astrocytes, intracellular levels of cAMP rapidly recovered to baseline and oscillated between baseline and 40% of baseline over the 45-minute experimental period (FIG. 10B).
We hypothesized that if cooperative signaling between Nf1 loss and CXCR4 activation promotes tumor formation through the suppression of cAMP, then agents that alter intracellular cAMP should modulate CXCL12 responses. We treated astrocytes with the adenylyl cyclase (AC) activator forskolin in the presence and absence of CXCL12. […] In these experiments, forskolin elevated intracellular cAMP levels in both Nf1+/+ and Nf1−/− astrocytes with peak values of 17.8+/−0.4 and 19.4+/−4.5 pmol/mg of protein, respectively, after 24 hours of treatment. The effect of forskolin was not abrogated by co-treatment with CXCL12. Under these conditions, cAMP levels were 17.9+/−2.5 and 10.4+/−5.8 pmol/mg of total protein in Nf1+/+ and Nf1−/− astrocytes, respectively. […] The effect of forskolin on CXCL12-mediated Nf1−/− apoptosis was evidenced by changes in the percentage of Nf1−/− astrocytes in the sub-G0 fraction of the cell cycle (FIG. 11B). Thus while astrocyte growth is dependent upon MEK and PI3 kinase activity, CXCL12-induced Nf1−/− astrocyte growth requires the suppression of intracellular cAMP levels.

[2] = tested on: Daoy medulloblastoma cells; experiment: Viable cell number by trypan blue exclusion, Daoy cells; format: cell-based, human; conditions: CXCL12 1 μg/ml
Procedure: Brain tumor cell cultures. Cells were cultured in αMEM (Invitrogen, Carlsbad, Calif.) supplemented with 10% FCS (Biomedia, Foster City, Calif.) in the presence of penicillin streptomycin at 37° C. with 5% CO2.
as §1

U87 glioblastoma cells = experiment: Intracellular cAMP by ELISA, U87 glioblastoma cells; format: cell-based, human; conditions: 1 μg/ml CXCL12
Procedure: as §1, §3, §2

Nf1+/+ astrocytes = experiment: Cell number by trypan blue exclusion, Nf1+/+ astrocytes; format: cell-based, mouse; conditions: CXCL12 0.1 ug/ml (≈10 nM), 24 hours, vs untreated controls
Procedure: Culture and treatment of primary astrocytes. Primary cultures of astrocytes were prepared from post-natal day two Nf1^flox/flox mice as previously described (134) and in accordance with established Animal Studies Protocols at Washington University School of Medicine. Cultures were infected with adenovirus containing either Cre recombinase (Nf1−/−) or LacZ (Nf1+/+). Primary cultures of astrocytes were grown under standard adherent conditions in serum free media (DMEM/F12 or Neurobasal (Gibco-BRL)) in the presence or absence of 0.1 μg/ml CXCL12 (Peprotech) and 10 μM Forskolin for 24 hours, as indicated. Cell number was determined after 24 hours by trypan blue exclusion and the growth effects of CXCL12 were derived as follows: ((cell number in the presence of CXCL12—cell number cell in the absence of CXCL12)/cell number in the absence of CXCL12)×100.)
To determine the biological significance of CXCR4 activation to NF1 glioma biology, we next sought to evaluate the regulation of CXCL12 growth effects by neurofibromin in astrocytes. While the true cell of origin of astrocytomas remains unknown, we utilized primary cultures of cortical astrocytes as a model of a normal counterpart to astrocytoma cells. Astrocytes were derived from Nf1^flox/flox mice and rendered Nf1+/+ or Nf1−/− by infection with adenovirus encoding LacZ or Cre recombinase, respectively.

Q: “CXCL12: chemokine ligand of CXCR4 (Peprotech)” was tested. Which “cAMP, lower level of fluctuation” value (cortical astrocytes) did it give?
A: The value was 40 % of baseline.

Q: And the “cyclic AMP levels after CXCL12” value [1]?
A: The value was “rapidly declined”.

Q: And the “reduction in cAMP as compared to GPCs (area under the curve)” value [1]?
A: The value was 70%.

Q: And the “integrated area under the cAMP curve” value (Nf1−/− astrocytes; 0.1 μg/ml CXCL12, 45-minute period)?
A: The value was 1.96.

Q: And the “intracellular cAMP in Nf1−/− astrocytes relative to Nf1+/+ astrocytes” value (Nf1−/− astrocytes; 0.1 μg/ml CXCL12, from areas under the curves)?
A: Its value is “approximately 73%”.

Q: What about the “increase in cell number” value [2] of the same substance?
A: Its value is “greater than 2 fold”.

Q: And the “increase in cell number” value ([2]; serum-free)?
A: The value was “greater than 200%”.

Q: And the “cyclic AMP levels after CXCL12” value (U87 glioblastoma cells)?
A: Its value is “rapidly declined”.

Q: What about the “reduction in intracellular cAMP as compared to astrocytes (area under the curve)” value (U87 glioblastoma cells) of the same substance?
A: Its value is 45%.

Q: What about the “decrease in cell number” value (Nf1+/+ astrocytes) of the same substance?
A: Its value is 10+/−5%.
